The target in one experiment is BaF3(T315I) (Homo sapiens, UniProt P00519, T315I, cells depend on it). As to the kind of experiment: WST (CCK-8) anti-proliferation assay, BaF3 T315I cells. The settings on record: read-out: BaF3(T315I); anti-proliferative IC50, 72 h treatment, CCK-8, BaF3 T315I.
Another experiment deals with BaF3(WT) (Homo sapiens, UniProt P00519). Put plainly: WST (CCK-8) anti-proliferation assay, BaF3 WT cells. As to conditions: read-out: BaF3(WT); anti-proliferative IC50, 72 h treatment, CCK-8, BaF3 WT.

Description for BaF3(T315I): The anti-proliferative effect of representative Compounds of the Disclosure was determined by a water-soluble tetrazolium (WST)-based assay using Cell Counting Kit-8 (CCK-8). Cells were seeded in 96-well plates and treated with different concentrations of test articles for 72 h. Each treatment was tested in triplicates. Briefly, a series of 9 concentrations were chosen for each test article and added at 100 μl/well into a 96-well plate. Each concentration was tested in triplicates. 100 μl of diluent was added into 3-6 wells in the same plate for cell control group, and another set of 3-6 wells was used as a blank control.
In each well, 100 μl of cell suspension (containing optimal cell numbers, which creates approximately 100% confluence of cells in control wells based on by the absorbance (OD) value) was dispensed into the same 96-well plate except for the blank well. The plate was then cultured at 37° C. in an incubator in an atmosphere with 5% CO2 for 72 h. At the end of treatments, 20 μl/well of CCK-8 reagent was directly added to each wells. The plate was then incubated at 37° C. in an incubator in an atmosphere with 5% CO2 for 2-4 hour.
The cells viability was calculated using the mean OD value of triplicated wells following the equation below: (OD sample−OD blank)/(OD cell control−OD blank)×100 IC50 values were calculated with Graphpad Prism 6.0 software using nonlinear regression (curve fitting) type data analysis.

Consider `CN1C(=O)c2cc(C(=O)Nc3ccc(OC(F)(F)Cl)cc3)cc(-c3ccncc3)c2C1(C)C` [IV-4, N-(4-(chlorodifluoromethoxy)phenyl)-1,1,2-trimethyl-3-oxo-7-(pyridin-4-yl)isoindoline-5-carboxamide], for which the GI50 on BaF3(T315I) turned out to be 581 nM; on BaF3(WT), 129 nM.

Turning to `CS(=O)(=O)N1CCc2cc(C(=O)Nc3ccc(OC(F)(F)Cl)cc3)cc(-c3ccn[nH]3)c21` [VII-9, N-(4-(chlorodifluoromethoxy)phenyl)-1-(methylsulfonyl)-7-(1H-pyrazol-5-yl) indoline-5-carboxamide], the GI50 at BaF3(T315I) is 4960 nM; at BaF3(WT), 403 nM.

Consider `CC1CN(C(C)C)c2cc(C(=O)Nc3ccc(OC(F)(F)Cl)cc3)cc(-c3ccn[nH]3)c21` (stereo not shown) [III-1, N-(4-(chlorodifluoromethoxy)phenyl)-1-isopropyl-3-methyl-4-(1H-pyrazol-5-yl)indoline-6-carboxamide], for which the GI50 at BaF3(T315I) turned out to be 3250 nM; at BaF3(WT), 119 nM.

Regarding `Cc1ccc(-c2cc(C(=O)Nc3ccc(OC(F)(F)Cl)cc3)cc3c2C(C)(C)N(C)C3=O)s1` [IV-3, N-(4-(chlorodifluoromethoxy)phenyl)-1,1,2-trimethyl-7-(5-methylthiophen-2-yl)-3-oxoisoindoline-5-carboxamide], the GI50 at BaF3(T315I) was 2380 nM; on BaF3(WT) it was 132 nM.

Regarding `CC(C)n1cc(Cl)c2cc(C(=O)Nc3ccc(OC(F)(F)Cl)cc3)cc(-c3cncnc3)c21` [XII-4, 3-chloro-N-(4-(chlorodifluoromethoxy)phenyl)-1-isopropyl-7-(pyrimidin-5-yl)-1H-indole-5-carboxamide], the GI50 on BaF3(T315I) was 726 nM; on BaF3(WT), 128 nM.

Regarding `CC(C)N1c2c(cc(C(=O)Nc3ccc(OC(F)(F)Cl)cc3)cc2-c2cncnc2)CC1C(=O)N1CCOCC1` (stereo not shown) [VII-23, N-(4-(chlorodifluoromethoxy)phenyl)-1-isopropyl-2-(morpholine-4-carbonyl)-7-(pyrimidin-5-yl)indoline-5-carboxamide], the values for the GI50 on BaF3(T315I) and at BaF3(WT) were 146 nM and 17 nM, respectively.

`CN1C(=O)C(C)(C)c2cc(C(=O)Nc3ccc(OC(F)(F)Cl)cc3)cc(-c3ccn[nH]3)c21` [VIII-1, N-(4-(chlorodifluoromethoxy)phenyl)-1,3,3-trimethyl-2-oxo-7-(1H-pyrazol-5-yl)indoline-5-carboxamide]: the GI50 on BaF3(T315I) came out at 3680 nM; on BaF3(WT), 458 nM.

`CN1CCC2(CC1)C(=O)Nc1cc(C(=O)Nc3ccc(OC(F)(F)Cl)cc3)cc(-c3ccn[nH]3)c12` [V-10, N-(4-(chlorodifluoromethoxy)phenyl)-1′-methyl-2-oxo-4-(1H-pyrazol-5-yl)spiro[indoline-3,4′-piperidine]-6-carboxamide]: the GI50 on BaF3(T315I) was 921 nM; on BaF3(WT), 110 nM.

On to `CN1CC(C)(C)c2c(-c3ccn[nH]3)cc(C(=O)Nc3ccc(OC(F)(F)Cl)cc3)cc21` [III-2, N-(4-(chlorodifluoromethoxy)phenyl)-1,3,3-trimethyl-4-(1H-pyrazol-5-yl)indoline-6-carboxamide], for which the GI50 turned out to be 2060 nM on BaF3(T315I) and 78 nM at BaF3(WT).

For the compound `CC(C)N1CC(CN(C)C)c2cc(C(=O)Nc3ccc(OC(F)(F)Cl)cc3)cc(-c3ccn[nH]3)c21` (stereo not shown) [VII-27, N-(4-(chlorodifluoromethoxy)phenyl)-3-((dimethylamino)methyl)-1-isopropyl-7-(1H-pyrazol-5-yl)indoline-5-carboxamide], the GI50 at BaF3(T315I) worked out at 366 nM; on BaF3(WT), 85 nM.

On to `Cc1cn(C(C)C)c2c(-c3cncnc3)cc(C(=O)Nc3ccc(OC(F)(F)Cl)cc3)cc12` [XII-5, N-(4-(chlorodifluoromethoxy)phenyl)-1-isopropyl-3-methyl-7-(pyrimidin-5-yl)-1H-indole-5-carboxamide], for which the GI50 on BaF3(T315I) amounted to 3180 nM; on BaF3(WT) it was 103 nM.

Take `CC1(C)CNc2cc(C(=O)Nc3ccc(OC(F)(F)Cl)cc3)cc(-c3ccn[nH]3)c21` [III-3, N-(4-(chlorodifluoromethoxy)phenyl)-3,3-dimethyl-4-(1H-pyrazol-5-yl)indoline-6-carboxamide]: the GI50 at BaF3(T315I) was found to be 790 nM; on BaF3(WT), 94 nM.

Consider `CNCC1Cc2cc(C(=O)Nc3ccc(OC(F)(F)Cl)cc3)cc(-c3ccn[nH]3)c2N1C(C)C` (stereo not shown) [VII-17, N-(4-(chlorodifluoromethoxy)phenyl)-1-isopropyl-2-((methylamino)methyl)-7-(1H-pyrazol-5-yl) indoline-5-carboxamide], for which the GI50 was 3230 nM on BaF3(T315I) and 584 nM on BaF3(WT).

On to `CC(C)N1c2c(cc(C(=O)Nc3ccc(OC(F)(F)Cl)cc3)cc2-c2cncnc2)CC1C(=O)O` (stereo not shown) [VII-21, 5-((4-(chlorodifluoromethoxy)phenyl)carbamoyl)-1-isopropyl-7-(pyrimidin-5-yl)indoline-2-carboxylic acid], for which the GI50 turned out to be 1610 nM at BaF3(T315I) and 158 nM on BaF3(WT).

In the case of `O=C(Nc1ccc(OC(F)(F)Cl)cc1)c1cc2c(c(-c3ccn[nH]3)c1)C1(CCCCC1)C(=O)N2` [V-11, N-(4-(chlorodifluoromethoxy)phenyl)-2′-oxo-4′-(1H-pyrazol-5-yl)spiro[cyclohexane-1,3′-indoline]-6′-carboxamide], the figures for the GI50 at BaF3(T315I) and on BaF3(WT) were 40 nM and 8 nM, respectively.

Turning to `CC(C)N1c2c(cc(C(=O)Nc3ccc(OC(F)(F)Cl)cc3)cc2-c2ccn[nH]2)CC1CC(=O)N1CCOCC1` (stereo not shown) [VII-35, N-(4-(chlorodifluoromethoxy)phenyl)-1-isopropyl-2-(2-morpholino-2-oxoethyl)-7-(1H-pyrazol-5-yl)indoline-5-carboxamide], the GI50 turned out to be 1190 nM on BaF3(T315I) and 173 nM at BaF3(WT).

Regarding `O=C(Nc1ccc(OC(F)(F)Cl)cc1)c1cc2c(c(-c3ccn[nH]3)c1)C1(CC=CC1)C(=O)N2` [V-4, N-(4-(chlorodifluoromethoxy)phenyl)-2′-oxo-4′-(1H-pyrazol-5-yl)spiro[cyclopentane-1,3′-indolin]-3-ene-6′-carboxamide], the GI50 at BaF3(T315I) turned out to be 292 nM; on BaF3(WT), 43 nM.

In the case of `CC(C)N1CC(C)(CO)c2cc(C(=O)Nc3ccc(OC(F)(F)Cl)cc3)cc(-c3ccn[nH]3)c21` (stereo not shown) [VII-41, N-(4-(chlorodifluoromethoxy)phenyl)-3-(hydroxymethyl)-1-isopropyl-3-methyl-7-(1H-pyrazol-5-yl)indoline-5-carboxamide], the values for the GI50 at BaF3(T315I) and on BaF3(WT) were 168 nM and 46 nM, respectively.

Take `CC1CN(C(C)C)c2c(cc(C(=O)Nc3ccc(OC(F)(F)Cl)cc3)cc2-c2ccn[nH]2)O1` (stereo not shown) [IX-4, N-(4-(chlorodifluoromethoxy)phenyl)-4-isopropyl-2-methyl-5-(1H-pyrazol-5-yl)-3,4-dihydro-2H-benzo[b][1,4]oxazine-7-carboxamide]: the GI50 worked out at 3110 nM on BaF3(T315I) and 33 nM at BaF3(WT).

Regarding `CCC1c2cc(C(=O)Nc3ccc(OC(F)(F)Cl)cc3)cc(-c3ccn[nH]3)c2N(C(C)C)C1CNC` (stereo not shown) [VII-24, N-(4-(chlorodifluoromethoxy)phenyl)-3-ethyl-1-isopropyl-2-((methylamino)methyl)-7-(1H-pyrazol-5-yl)indoline-5-carboxamide], the GI50 at BaF3(T315I) came to 3860 nM; at BaF3(WT), 1690 nM.

Regarding `CNC(=O)C1Cc2cc(C(=O)Nc3ccc(OC(F)(F)Cl)cc3)cc(-c3cncnc3)c2N1C(C)C` (stereo not shown) [VII-16, N5-(4-(chlorodifluoromethoxy)phenyl)-1-isopropyl-N2-methyl-7-(pyrimidin-5-yl)indoline-2,5-dicarboxamide], the values for the GI50 at BaF3(T315I) and on BaF3(WT) were 278 nM and 28 nM, respectively.

On to `O=C(Nc1ccc(OC(F)(F)Cl)cc1)c1cc2c(c(-c3ccn[nH]3)c1)C1(CC(O)C(O)C1)C(=O)N2` (stereo not shown) [V-9, N-(4-(chlorodifluoromethoxy)phenyl)-3,4-dihydroxy-2′-oxo-4′-(1H-pyrazol-5-yl)spiro[cyclopentane-1,3′-indoline]-6′-carboxamide], for which the GI50 was 910 nM at BaF3(T315I) and 108 nM at BaF3(WT).

Turning to `Cc1cn(C(C)C)c2c(-c3ccn[nH]3)cc(C(=O)Nc3ccc(OC(F)(F)Cl)cc3)cc12` [XII-6, N-(4-(chlorodifluoromethoxy)phenyl)-1-isopropyl-3-methyl-7-(1H-pyrazol-5-yl)-1H-indole-5-carboxamide], the GI50 at BaF3(T315I) stood at 511 nM; on BaF3(WT), 22 nM.

The values above are taken from patent US20220332701A1, “HETEROCYCLIC COMPOUNDS AS BCR-ABL INHIBITORS” (ASCENTAGE PHARMA (SUZHOU) CO., LTD., priority 2019, published 2022).
